How the values were obtained:
Assay in all cases: relative viability (nuclei count vs DMSO), 5 days (fraction); higher = more cells survive
TPCA-1 + Vorinostat = compound: C1=CC(=CC=C1C2=CC(=C(S2)NC(=O)N)C(=O)N)F [TPCA-1] + O=C(CCCCCCC(=O)Nc1ccccc1)NO [Vorinostat] (partner 1 µM)
In short: (§1)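 Each reported value is a median over duplicate plates. It expresses relative viability: treated-well nuclei count divided by vehicle-well nuclei count. Lung cancer cell lines in 1536-well plates were dosed by pin tool a day after seeding, alone with one drug or with a fixed anchor-drug dose plus five library-drug doses (not always all listed) in √10 steps, and nuclei were counted after 5 days.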

Lestaurtinib + Dasatinib = compound: C[C@]12O[C@H](C[C@]1(O)CO)n1c3ccccc3c3c4c(c5c6ccccc6n2c5c31)CNC4=O [Lestaurtinib] + Cc1nc(Nc2ncc(C(=O)Nc3c(C)cccc3Cl)s2)cc(N2CCN(CCO)CC2)n1 [Dasatinib] (partner 0.075 µM)
In short: as §1

[1] = compound: C1/C(=C\C2=CC=CS2)/C(=O)/C(=C/C3=CC=CS3)/C1 + Cc1nc(NC(=O)N2CCC[C@H]2C(N)=O)sc1-c1ccnc(C(C)(C)C(F)(F)F)c1 [Alpelisib] (partner 2 µM)
In short: as §1

TPCA-1 + Trametinib = compound: C1=CC(=CC=C1C2=CC(=C(S2)NC(=O)N)C(=O)N)F [TPCA-1] + CC(=O)Nc1cccc(-n2c(=O)n(C3CC3)c(=O)c3c(Nc4ccc(I)cc4F)n(C)c(=O)c(C)c32)c1 [Trametinib] (partner 0.02 µM)
In short: as §1

Cell Line	relative viability (TPCA-1 + Vorinostat; first compound 0.04 µM)	relative viability (TPCA-1 + Vorinostat; first compound 0.1265 µM)	relative viability (TPCA-1 + Vorinostat; first compound 0.4 µM)	relative viability (TPCA-1 + Vorinostat; first compound 1.265 µM)	relative viability (TPCA-1 + Vorinostat; first compound 4 µM)	relative viability (Lestaurtinib + Dasatinib; first compound 0.005 µM)	relative viability (Lestaurtinib + Dasatinib; first compound 0.01581 µM)	relative viability (Lestaurtinib + Dasatinib; first compound 0.05 µM)	relative viability (Lestaurtinib + Dasatinib; first compound 0.1581 µM)	relative viability (Lestaurtinib + Dasatinib; first compound 0.5 µM)	relative viability ([1]; first compound 0.2 µM)	relative viability ([1]; first compound 0.6325 µM)	relative viability ([1]; first compound 2 µM)	relative viability ([1]; first compound 6.325 µM)	relative viability ([1]; first compound 20 µM)	relative viability (TPCA-1 + Trametinib; first compound 0.04 µM)	relative viability (TPCA-1 + Trametinib; first compound 0.1265 µM)	relative viability (TPCA-1 + Trametinib; first compound 0.4 µM)	relative viability (TPCA-1 + Trametinib; first compound 1.265 µM)	relative viability (TPCA-1 + Trametinib; first compound 4 µM)
NCI-H1355	0.735	0.603	0.611	0.582	0.553	0.639	0.777	0.58	0.495	0.259	0.794	0.722	0.758	0.72	0.804	0.494	0.384	0.406	0.381	0.41
EKVX	0.724	0.622	0.766	0.76	0.654	0.477	0.735	0.562	0.576	0.373	0.878	0.85	0.992	0.626	0.855	0.507	–	0.376	0.216	0.313
NCI-H441	0.776	0.636	0.717	0.577	0.476	0.521	0.58	0.431	0.548	0.482	0.819	0.832	0.719	0.578	0.737	0.402	0.405	0.422	0.459	0.266
NCI-H1975	0.724	0.699	0.712	0.632	0.444	0.479	0.396	0.373	0.328	0.257	0.736	0.627	0.617	0.592	0.62	0.358	0.365	0.392	0.43	0.147
HCC-78	0.445	0.422	0.42	0.469	0.28	0.341	0.669	0.294	0.25	0.218	0.349	0.313	0.359	0.321	0.342	0.837	0.677	0.722	0.78	0.519
NCI-H2085	–	0.803	0.803	0.781	0.514	0.236	0.265	0.3	0.335	0.496	1.22	1.02	1.04	0.785	0.97	–	0.613	0.655	0.532	0.514
H3255	0.82	0.461	0.819	0.694	0.512	0.291	0.428	0.299	0.342	0.323	0.759	0.553	0.661	0.66	0.704	0.728	0.545	0.62	0.596	0.519
NCI-H2087	0.734	0.759	0.911	0.629	0.266	0.843	0.81	0.494	0.724	0.319	1.24	1.14	1.04	0.917	1.11	0.201	0.163	0.231	0.152	0.139
LC-2-ad	0.742	0.69	0.705	0.716	0.155	0.618	0.831	0.258	0.281	0.256	0.961	0.956	0.942	0.702	0.824	0.946	0.941	0.958	0.968	0.765
PC-3 [JPC-3]	0.787	0.765	0.963	0.818	0.284	1.01	1.02	0.843	0.857	0.483	0.994	0.995	0.998	0.97	1.05	0.755	0.692	0.73	0.757	0.642
EBC-1	–	–	–	–	–	–	–	–	–	–	0.852	0.923	0.947	0.786	0.845	–	–	–	–	–
HCC-15	0.914	0.758	0.84	0.782	0.806	0.73	0.702	0.485	0.38	0.169	0.926	0.934	0.823	0.845	0.871	0.402	0.372	0.347	0.346	0.311
NCI-H1563	–	–	–	–	–	0.487	0.447	0.499	0.409	0.362	0.933	0.912	0.881	0.93	1.02	–	–	–	–	–
COR-L 105	1.02	0.709	0.766	0.628	0.391	0.32	0.32	0.245	0.258	0.145	1.36	1.02	0.902	0.728	0.913	0.542	0.321	0.422	0.505	0.407
NCI-H520	0.72	0.636	0.782	0.605	0.497	0.209	0.203	0.164	0.169	0.159	0.927	0.847	0.928	0.82	0.835	0.773	0.69	0.75	0.674	0.278
LU99A	0.546	0.463	0.544	0.457	0.316	0.518	0.528	0.387	0.298	0.215	0.499	0.547	0.545	0.476	0.454	0.66	0.487	0.553	0.466	0.284
NCI-H1666	1.08	0.966	1.02	0.988	1.1	1.13	0.922	0.924	0.747	0.649	1.18	0.936	0.972	0.712	0.852	0.838	0.7	0.879	0.804	0.787
